Patent publication US12157730B2, “Heteroaryl derivative, method for producing same, and pharmaceutical composition comprising same as effective component” (VORONOI INC., priority 2019, dated 2024)

Key:
Format in all cases: cell-based
PC9GR = assay: Lung cancer cell proliferation suppression, PC9GR; details: 72 hours after treatment, CellTiter-Glo
Procedure: (§1) The following experiment was carried out to evaluate the suppression activity of the compounds according to the present invention against proliferation of Ba/F3 and lung cancer cells which express EGFR mutations.
(§2) Of the cancer cell lines expressing the EGFR gene, A549 was cultured after adding 10% FBS (HyClone) to DMEM (Invitrogen), and RPMI-1640 (Invitrogen) with 10% FBS was used for the other cancer cells. For the Ba/F3 cells, RPMI-1640 with 10% FBS and 5 ng/ml IL-3 (R&D Systems) was used. The transduced Ba/F3 cells were cultured by adding 1 ug/ml puromycin (Invitrogen) to the same medium.
(§3) 24 hours before treatment with the compounds, 3000 to 5000 cells were distributed into each well of a white clear bottom 96 well plate (Corning). The compounds were diluted in dimethylsulfoxide (dilution ratio 3:1; 12 concentrations total) and injected 0.5 ul each for a final concentration of 0.3 nM to 50 um. As for measurement of live cells, 72 hours after treatment with the compounds, a CellTiter-Glo luminescent cell-viability reagent (Promega) was used to store the cells at room temperature for 10 minutes, followed by measurement of luminescence using a reader (SynergyNeo, Biotek). Each test was repeated three times.
(§4) The result was calculated as a cell growth ratio (%) compared to a control. The program GraphPad Prism version 5.0 was used to draw the graphs and calculate the GI50 values.

[1] = Cancer cell proliferation suppression, A549; details: A459; 72 hours after treatment, CellTiter-Glo
Procedure: as §1, §2, §3, §4

H1975 = assay: Lung cancer cell proliferation suppression, H1975; details: Homo sapiens, NCI-H1975; 72 hours after treatment, CellTiter-Glo
Procedure: as §1, §2, §3, §4

PC9 = assay: Lung cancer cell proliferation suppression, PC9; details: Homo sapiens, PC-9; 72 hours after treatment, CellTiter-Glo
Procedure: as §1, §2, §3, §4

[2] = target: T1, Ba/F3 cell EGFR Exon20 ins NPH (Homo sapiens, UniProt P00533, INS773NPH); assay: Ba/F3 cell proliferation suppression, EGFR Exon20 ins NPH; details: GI50 class; Ba/F3 cell line with NPH inserted at Exon20 of EGFR; 72 hours
T1 construct: expressed in transfected cells; host or cells: Ba/F3
Summary of the method: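 72 h compound exposure, 0.3 nM–50 um (12 points, 3:1 dilution in DMSO); viability by CellTiter-Glo luminescence. Ba/F3 medium: RPMI-1640, 10% FBS, 5 ng/ml IL-3, 1 ug/ml puromycin for transduced cells. GI50 vs control, n=3.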

GI50 (PC9GR) | GI50 [1] | GI50 (H1975) | GI50 (PC9) | Ba/F3 (NPH) Activity [2] | SMILES
14 nM | 4820 nM | 24 nM | 5 nM | – | O=C(Nc1cnn2ccc(N3CCC[C@@H]3c3cc(F)ccc3F)nc12)N1CC[C@H](O)C1 [Larotrectinib]
16 nM | 2410 nM | 36 nM | 7 nM | – | C=CC(=O)Nc1cc(Nc2nccc(-c3cn(C)c4ccccc34)n2)c(OC)cc1N(C)CCN(C)C [Osimertinib]
7 nM | > 15000 nM | 9 nM | 2 nM | A (GI50 < 50 nM) | C=CC(=O)Nc1cc(Nc2cc(N3OCC[C@@H]3c3ccccc3)ncn2)c(OC)cc1N1CCC(N2CCOCC2)CC1 [Example 11, N-(4-methoxy-2-(4-morpholinopiperidine-1-yl)-5-((6-((R)-3-phenylisoxazolidine-2-yl)pyrimidine-4-yl)amino)phenyl) acrylamide]
20 nM | > 15000 nM | 34 nM | 1 nM | – | C=CC(=O)N1CCC(Oc2cc3c(Nc4ccc(Cl)c(Cl)c4F)ncnc3cc2OC)CC1 [Poziotinib]
